Experimental data as given in publication PMC12207590, “Substrate Specificity of the Organic Cation Transporters MATE1 and MATE2K and Functional Overlap with OCT1 and OCT2” (Journal of Medicinal Chemistry, 2025).
Read-outs that look alike come from different tables or passages of the source. Where a SMILES comes first, the peptide text is derived from it.

How the values were obtained:
MATE1 = biological target: T1, MATE1 (Homo sapiens, UniProt Q96FL8); experiment: Uptake ratio in MATE1-overexpressing HEK293 cells vs empty vector (2.5 μM, 1 min, HPLC-MS/MS); format: cell-based
T1 sequence (Q96FL8 1-570): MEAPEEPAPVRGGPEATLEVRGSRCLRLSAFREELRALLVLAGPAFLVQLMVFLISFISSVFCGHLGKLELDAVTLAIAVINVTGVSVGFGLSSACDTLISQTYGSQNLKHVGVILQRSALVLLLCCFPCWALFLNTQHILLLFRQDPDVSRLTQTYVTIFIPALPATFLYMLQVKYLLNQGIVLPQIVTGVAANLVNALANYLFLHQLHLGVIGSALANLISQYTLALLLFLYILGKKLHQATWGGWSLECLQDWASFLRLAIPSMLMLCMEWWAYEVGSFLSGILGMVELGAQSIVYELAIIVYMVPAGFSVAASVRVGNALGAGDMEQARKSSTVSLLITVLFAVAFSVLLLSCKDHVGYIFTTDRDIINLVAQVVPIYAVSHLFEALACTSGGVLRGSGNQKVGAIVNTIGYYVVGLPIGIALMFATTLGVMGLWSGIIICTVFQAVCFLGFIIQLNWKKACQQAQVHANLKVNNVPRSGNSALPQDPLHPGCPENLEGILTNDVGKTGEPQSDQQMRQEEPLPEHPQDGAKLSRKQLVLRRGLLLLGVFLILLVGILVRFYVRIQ

MATE2K = MATE2K (Homo sapiens, UniProt Q86VL8); experiment: Uptake ratio in MATE2K-overexpressing HEK293 cells vs empty vector (2.5 μM, 1 min, HPLC-MS/MS); format: cell-based
Chain of MATE2K (Q86VL8 1-566 isoform Q86VL8-3): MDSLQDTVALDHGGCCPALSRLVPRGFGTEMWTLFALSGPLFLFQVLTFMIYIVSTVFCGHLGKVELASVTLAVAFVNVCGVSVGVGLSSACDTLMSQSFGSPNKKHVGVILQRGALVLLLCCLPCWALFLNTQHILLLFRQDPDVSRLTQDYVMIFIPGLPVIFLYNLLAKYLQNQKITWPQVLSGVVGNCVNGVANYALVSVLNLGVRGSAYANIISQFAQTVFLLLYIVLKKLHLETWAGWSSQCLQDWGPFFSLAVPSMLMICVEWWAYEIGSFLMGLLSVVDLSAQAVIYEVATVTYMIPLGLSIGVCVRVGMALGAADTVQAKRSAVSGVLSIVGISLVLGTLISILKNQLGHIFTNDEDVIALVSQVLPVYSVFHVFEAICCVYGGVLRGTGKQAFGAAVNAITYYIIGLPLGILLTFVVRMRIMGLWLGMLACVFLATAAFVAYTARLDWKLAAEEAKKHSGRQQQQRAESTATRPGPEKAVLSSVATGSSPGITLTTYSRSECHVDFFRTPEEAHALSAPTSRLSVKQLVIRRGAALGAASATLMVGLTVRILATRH

hCMEC [1] = experiment: TS DPH hCMEC (Table S2); format: cell-based, human; set-up: scale not given here
hCMEC [2] = experiment: TS MDAI hCMEC (Table S2); format: cell-based, human; set-up: scale not given here
[3] = fold uptake over empty vector, 2.5 μM, 1 min
[4] = mean ratio of uptake in MATE1-overexpressing HEK293 cells vs empty vector, 2.5 μM, 1 min
[5] = mean ratio of uptake in MATE2K-overexpressing HEK293 cells vs empty vector, 2.5 μM, 1 min

Compound | TS DPH hCMEC (hCMEC [1]) | TS MDAI hCMEC (hCMEC [2]) | MATE1 ratio (MATE1; [3]) | MATE1 (uptake ratio) (MATE1; [4]) | MATE2K ratio (MATE2K; [3]) | MATE2 (uptake ratio) (MATE2K; [5]) | TS DPH hCMEC (hCMEC [1]; Table S2) | TS MDAI hCMEC (hCMEC [2]; Table S2) | other results
NCCc1ccc(Oc2ccc(O)cc2)c(I)c1 [3-Iodothyronamine (T1AM), 3-Iodothyronamine] | 0.86 | 1.11 | – | – | – | – | – | – | MATE1 (uptake ratio) (MATE1): 1.36; MATE1 ratio (MATE1): 1.36; MATE2 (uptake ratio) (MATE2K): 1.07; MATE2K ratio (MATE2K): 1.07
CNc1c(C)n(C)n(-c2ccccc2)c1=O [4-Methylaminoantipyrine] | – | – | 0.21 | 0.21 | 0.83 | 0.83 | 1.20 | 1.26 | –
CCCC(=O)Nc1ccc(OCC(O)CNC(C)C)c(C(C)=O)c1 (centres unmarked) [Acebutolol] | – | – | 12.97 | 12.97 | 9.08 | 9.08 | 0.84 | 0.88 | –
O=C1CCc2ccc(OCCCCN3CCN(c4cccc(Cl)c4Cl)CC3)cc2N1 [Aripiprazole] | – | – | 1.32 | 1.32 | 1.26 | 1.26 | 0.72 | 0.68 | –
CCCNC(C)C(=O)Nc1c(C)csc1C(=O)OC (centres unmarked) [Articaine] | – | – | 1.26 | 1.26 | 1.59 | 1.59 | 0.53 | 0.47 | –
COC(=O)[C@H](Cc1ccccc1)NC(=O)[C@@H](N)CC(=O)O [Aspartame] (HELM PEPTIDE1{D.F.[CO[*:1]]}$$$$V2.0) | – | – | 1.26 | 1.26 | 1.07 | 1.07 | 1.77 | 1.65 | –
CNCC[C@@H](Oc1ccccc1C)c1ccccc1 [Atomoxetine] | – | – | 1.12 | 1.12 | 1.18 | 1.18 | 0.23 | 0.25 | –
CNCCc1ccccn1 [Betahistine] | – | – | 1.90 | 1.9 | 1.19 | 1.19 | 0.73 | 0.86 | –
C[N+](C)(C)CC(=O)O [Betaine] | – | – | 0.80 | 0.8 | 1.07 | 1.07 | 0.98 | 1.09 | –
OC(CCN1CCCCC1)(c1ccccc1)C1CC2C=CC1C2 (centres unmarked) [Biperiden] | – | – | 1.24 | 1.24 | 1.15 | 1.15 | 0.25 | 0.26 | –
O=C1CC2(CCCC2)CC(=O)N1CCCCN1CCN(c2ncccn2)CC1 [Buspirone] | 0.56 | 0.64 | – | – | – | – | – | – | MATE1 (uptake ratio) (MATE1): 2.36; MATE1 ratio (MATE1): 2.36; MATE2 (uptake ratio) (MATE2K): 1.36; MATE2K ratio (MATE2K): 1.36
C=CCN1C[C@H](C(=O)N(CCCN(C)C)C(=O)NCC)C[C@@H]2c3cccc4[nH]cc(c34)C[C@H]21 [Cabergoline] | – | – | 1.20 | 1.2 | 1.13 | 1.13 | 0.38 | 0.44 | –
C[N+](C)(C)CCO [Choline] | – | – | 1.13 | 1.13 | 1.09 | 1.09 | 1.04 | 1.27 | –
CC(C)(C)NCC(O)c1cc(Cl)c(N)c(Cl)c1 (centres unmarked) [Clenbuterol] | 0.36 | 0.07 | – | – | – | – | – | – | MATE1 (uptake ratio) (MATE1): 1.11; MATE1 ratio (MATE1): 1.11; MATE2 (uptake ratio) (MATE2K): 1.18; MATE2K ratio (MATE2K): 1.18
N[C@@H]1CON=C1O [Cycloserine (D), Cycloserine] | – | – | 1.19 | – | 1.14 | – | 1.25 | 0.79 | –
N[C@@H]1CON=C1O [Cycloserine (L), Cycloserine] | – | – | 1.19 | – | 1.10 | – | 1.34 | 0.76 | –
COc1cccc2c1C(=O)c1c(O)c3c(c(O)c1C2=O)C[C@@](O)(C(C)=O)C[C@@H]3O[C@H]1C[C@H](N)[C@H](O)[C@H](C)O1 [Daunorubicin] | 0.86 | 1.29 | – | – | – | – | – | – | MATE1 ratio (MATE1): 1.21; MATE2K ratio (MATE2K): 1.01
CN(C)CC(c1ccc(O)cc1)C1(O)CCCCC1 (centres unmarked) [Desvenlafaxine] | – | – | 1.12 | – | 1.09 | – | 0.49 | 0.61 | –
CN(C)CCC=C1c2ccccc2COc2ccccc21 [Doxepin] | – | – | 1.34 | – | 1.32 | – | 0.13 | 0.10 | –
CN1CCC[C@@H]1Cc1c[nH]c2ccc(CCS(=O)(=O)c3ccccc3)cc12 [Eletriptan] | – | – | 1.41 | – | 1.22 | – | 0.21 | 0.46 | –
CC[C@@H](CO)NCCN[C@@H](CC)CO [Ethambutol] | – | – | 14.14 | – | 2.78 | – | 0.98 | 0.95 | MATE1 ratio in this study (MATE1; Table S1, 2.5 μM, 1 min): 14.14; MATE1 ratio (MATE1; fold uptake over empty vector, 2.5 μM, 1 min, listed as ethambutol): 14; MATE2K ratio in this study (MATE2K; Table S1, 2.5 μM, 1 min): 2.78
CC(Cc1ccc(O)cc1)NCC(O)c1cc(O)cc(O)c1 (centres unmarked) [Fenoterol] | 1.47 | 1.16 | – | – | – | – | – | – | MATE1 ratio (MATE1): 14.98; MATE1 ratio in this study (MATE1): 14.98; MATE2K ratio (MATE2K): 5.46; MATE2K ratio in this study (MATE2K): 5.46
CC(C)C(=O)Oc1ccc(CO)cc1[C@H](CCN(C(C)C)C(C)C)c1ccccc1 [Fesoterodine] | – | – | 1.09 | – | 1.02 | – | 0.40 | 0.41 | –
N#CC(CCN1CCC(C(N)=O)(N2CCCCC2)CC1)(c1ccccc1)c1ccccc1 [Piritramide] | 0.80 | 0.82 | – | – | – | – | – | – | –
CC(C)NCC(O)COc1cccc2ccccc12 (centres unmarked) [Propranolol] | – | – | – | – | – | – | 0.12 | 0.08 | MATE2 (MATE2K; uptake ratio MATE2K-overexpressing vs empty-vector HEK293 cells, 2.5 μM, 1 min, mean): 1.14
CCN(C)C(=O)Oc1cccc([C@H](C)N(C)C)c1 [Rivastigmine] | 0.73 | 0.43 | – | – | – | – | – | – | –
CCCN(CCC)CCc1cccc2c1CC(=O)N2 [Ropinirole] | – | – | – | – | – | – | 0.67 | 0.58 | –
C#CCN(C)[C@H](C)Cc1ccccc1 [Selegiline] | 0.56 | 0.50 | – | – | – | – | – | – | –
Doxycycline | – | – | – | – | – | – | 1.45 | 1.45 | –
Maraviroc | 1.01 | 0.57 | – | – | – | – | – | – | –
